Experimental data published in patent US8278319B2, “Substituted spiroamine compounds” (Gruenenthal GmbH, priority 2008, dated 2012).

Legend:
[1] = target: T1, rat B1R (Rattus norvegicus, UniProt P97583); test: Functional investigation on the bradykinin receptor 1 (B1R), FLIPR Ca2+ assay, rB1R cells; format: cell-based; details: % inhibition rat B1R at 10 μM; CHO K1 cells transfected with rat B1R; agonist Des-Arg9 bradykinin at EC80; read-out: % Inh. (rat B1R) 10 μM
T1 construct: expressed in transfected cells; host or cells: CHO K1 cells
T1 sequence (P97583 1-337): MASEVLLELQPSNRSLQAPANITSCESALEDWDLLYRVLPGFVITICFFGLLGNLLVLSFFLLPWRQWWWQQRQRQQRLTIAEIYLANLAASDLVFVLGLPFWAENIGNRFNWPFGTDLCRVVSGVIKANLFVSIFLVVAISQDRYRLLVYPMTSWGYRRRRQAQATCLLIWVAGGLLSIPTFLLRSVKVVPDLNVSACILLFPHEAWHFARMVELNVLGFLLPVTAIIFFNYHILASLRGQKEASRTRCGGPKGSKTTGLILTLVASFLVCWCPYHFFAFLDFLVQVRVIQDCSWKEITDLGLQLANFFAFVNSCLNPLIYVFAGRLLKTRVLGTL
Procedure: (§1) The agonistic or antagonistic action of substances can be quantified on the bradykinin receptor 1 (B1R) of the human and rat species with ectopically expressing cell lines (CHO K1 cells) and with the aid of a Ca^2+-sensitive dye (Fluo-4) using a fluorescent imaging plate reader (FLIPR). The indication in % activation is based on the Ca^2+ signal after addition of Lys-Des-Arg^9 bradykinin (0.5 nM) or Des-Arg^9 bradykinin (100 nM). Antagonists lead to a suppression of the Ca^2+ influx following administration of the agonist. The % inhibition in comparison with the maximum achievable inhibition is indicated.
(§2) The agonistic or antagonistic action of substances can be determined on the bradykinin 1 receptor (B1R) of the human and rat species with the following assay. According to this assay, the Ca^2+ inflow through the channel is quantified with the aid of a Ca^2+-sensitive dye (Fluo-4 type, Molecular Probes Europe BV, Leiden, The Netherlands) in a fluorescent imaging plate reader (FLIPR, Molecular Devices, Sunnyvale, USA).
(§3) Chinese hamster ovary cells (CHO K1 cells) which are stably transfected with the human B1R gene (hB1R cells) or the B1R gene of the rat (rB1R cells) are used. For functional investigations, these cells are plated-out onto black 96-well plates with a clear base (BD Biosciences, Heidelberg, Germany or Greiner, Frickenhausen, Germany) in a density of 20,000-35,000 cells/well. Overnight, the cells are incubated at 37° C. and 5% CO2 in culture medium (hB1R cells: Nutrient Mixture Ham's F12, Gibco Invitrogen GmbH, Karlsruhe, Germany or DMEM, Sigma-Aldrich, Taufkirchen, Germany; rB1R cells: D-MEM/F12, Gibco Invitrogen, Karlsruhe, Germany) with 10 vol. % FBS (foetal bovine serum, Gibco Invitrogen GmbH, Karlsruhe, Germany or PAN Biotech GmbH, Aidenbach, Germany). On the following day the cells are loaded with 2.13 μM Fluo-4 (Molecular Probes Europe BV, Leiden, The Netherlands) in HBSS buffer (Hank's buffered saline solution, Gibco Invitrogen GmbH, Karlsruhe, Germany) with 2.5 mM probenecid (Sigma-Aldrich, Taufkirchen, Germany) and 10 mM HEPES (Sigma-Aldrich, Taufkirchen, Germany) for 60 min at 37° C. The plates are the washed twice with HBSS buffer, and HBSS buffer which additionally contains 0.1% BSA (bovine serum albumin; Sigma-Aldrich, Taufkirchen, Germany), 5.6 mM glucose and 0.05% gelatine (Merck KGaA, Darmstadt, Germany) is added. After a further incubation of 20 minutes at room temperature, the plates are inserted into the FLIPR for Ca^2+ measurement. Alternatively they are washed with buffer A (15 mM HEPES, 80 mM NaCl, 5 mM KCl, 1.2 mM CaCl2, 0.7 mM MgSO4, 2 g/l glucose, 2.5 mM probenecid) and loaded with buffer A with added 2.5 μM Fluo-4 and 0.025% Pluronic F127 (Sigma-Aldrich, Taufkirchen, Germany). The cells are then washed twice with buffer A and incubated for 30 minutes with buffer A, which additionally contains 0.05% BSA and 0.05% gelatine, at room temperature and then used for Ca^2+ measurement in the FLIPR.
(§4) The Ca^2+-dependent fluorescence is measured here before and after addition of substances (λex=488 nm, λem=540 nm). The quantification is performed by measuring the highest fluorescence intensity (FC, fluorescence counts) over time.
(§5) The FLIPR protocol comprises two additions of substance. Test substances (10 μM) are first pipetted onto the cells and the Ca^2+ inflow is compared with the control (hB1R: Lys-Des-Arg^9 bradykinin>=50 nM; rB1R: Des-Arg^9 bradykinin 10 μM). The value in % activation based on the Ca^2+ signal after addition of Lys-Des-Arg^9 bradykinin (>=50 nM) or Des-Arg^9 bradykinin (10 μM) is obtained therefrom. After incubation for 10-20 minutes, Lys-Des-Arg^9 bradykinin (hB1R) or Des-Arg^9 bradykinin (rB1R) is applied in the EC80 concentration and the inflow of Ca^2+ is likewise determined. Antagonists lead to a suppression of the Ca^2+ inflow. The % inhibition in comparison with the maximum achievable inhibition is calculated. […]

[2] = target: T2, human B1R (Homo sapiens, UniProt P46663); test: Functional investigation on the bradykinin receptor 1 (B1R), FLIPR Ca2+ assay, hB1R cells; format: cell-based; details: % inhibition human B1R at 10 μM; CHO K1 cells transfected with human B1R; agonist Lys-Des-Arg9 bradykinin at EC80; read-out: % Inh. (hum. B1R) 10 μM
T2 construct: expressed in transfected cells; host or cells: CHO K1 cells
T2 sequence (P46663 1-353): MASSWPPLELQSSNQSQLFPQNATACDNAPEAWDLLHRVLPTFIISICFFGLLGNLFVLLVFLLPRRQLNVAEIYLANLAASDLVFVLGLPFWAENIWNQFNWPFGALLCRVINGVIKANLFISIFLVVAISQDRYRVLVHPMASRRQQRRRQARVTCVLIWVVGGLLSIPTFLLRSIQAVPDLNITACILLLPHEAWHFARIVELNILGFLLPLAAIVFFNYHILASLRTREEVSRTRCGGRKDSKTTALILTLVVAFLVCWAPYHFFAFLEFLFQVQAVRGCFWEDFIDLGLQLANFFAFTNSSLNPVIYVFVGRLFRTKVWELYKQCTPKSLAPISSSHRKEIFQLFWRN
Procedure: as §1, §2, §3, §4, §5

Question: `COc1cc(C)c(S(=O)(=O)N2CCCC[C@H]2COCC(=O)N2CCC3(CC2)CCC(c2ccccc2)(N2CC(F)(F)C2)CC3)c(C)c1` [Compound 13, 1-(9-(3,3-Difluoroazetidin-1-yl)-9-phenyl-3-azaspiro[5.5]undecan-3-yl)-2-(((S)-1-(4-methoxy-2,6-dimethylphenylsulfonyl)piperidin-2-yl)methoxy)ethanone] was tested. Which inhibition at 10 µM [1] did it give?
Answer: 104%

Question: What about the inhibition at 10 µM [2] of the same compound?
Answer: 86%
